Consider 2 molecules from paper doi:10.1101/2024.12.09.627393 (bioRxiv, 2024).

This assay deals with CECR2-BRD. The experiment in a line: 2D 15N-HSQC NMR chemical shift perturbation titration. In kind it is binding, human. The settings on record: 15N-labeled CECR2-BRD, 25°C; 3% DMSO, or NVS-CECR2–1 including 3% DMSO. As to the method:
CECR2-BRD was expressed and purified for NMR experiments following previously established methods, [18]. Briefly, uniformly labeled ^15N CECR2-BRD samples in buffer containing 20 mM Tris-HCl pH 6.8, 150 mM NaCl, 1 mM TCEP, and 10% D2O were purified at 0.30 mM for chemical-shift perturbation experiments.
All two-dimensional (2D) ^15N-HSQC (heteronuclear single quantum […]) experiments were acquired at 25°C using a 600 MHz Bruker AVANCE III spectrometer equipped with a z-gradient 1.7 mm TCI probe at the National Magnetic Resonance Facility at Madison (NMRFAM). The experimental setup for all 2D experiments was kept similar to our previous studies, [18]. […] Chemical Shift Perturbations (CSP) from the final titration point were calculated and normalized as described by Williamson[21], using the equation: Δδ=√ΔδH^2+α⋅ΔδN^2 Where α=0.2 for glycine, and 0.14 for all other residues. ΔδH and ΔδN represent chemical shifts in ppm for hydrogen and nitrogen atoms, respectively. […] These were calculated using the standard deviation (Δ ppm/ Standard deviation ppm, where standard deviation was calculated for each histone ligand) of the Euclidean chemical change of the residues as described previously, [18].

As to `C[S+](C)[O-]` [DMSO], the “Chemical shift perturbations of CECR2-BRD residues (in words)” value is “significant (> 1 Δppm) shifts in residues within the ZA loop and BC loop region”.
With `CCCS(=O)(=O)c1nc(NC2CC2)cc(-c2ccc3c(ccn3C3CC(C)(C)NC(C)(C)C3)c2)n1` [NVS-CECR2–1], the “Chemical shift perturbations of CECR2-BRD residues (in words)” value was “CSPs in some residues within αA, αB and αC helices”.
